Counter-ions that a name gives are not always drawn.
Key:
[1] = tested on: cultured human mast cells (CHMC); experiment: CHMC low cell density IgE activation: tryptase assay; format: cell-based; details: anti-IgE
Outline: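 Supernatant tryptase activity, assayed with substrate for 30 min at room temperature, served as the degranulation measure. Mast cells (1000-1500 per well depending on donor) sat 1 hr at 37° C in MT before a 30 min anti-IgE challenge at 37° C.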

[2] = tested on: cultured human mast cells (CHMC); experiment: CHMC low cell density ionomycin activation: tryptase assay; format: cell-based

| Compound | IC50 [1] [nM] | IC50 [2] [µM] | IC50 ([1]; HCl salt) [nM] | IC50 ([2]; HCl salt) [µM] |
| --- | --- | --- | --- | --- |
| CCOC(=O)C(C)(C)c1ccc(Nc2nc(Nc3ccc(OCC(=O)OC)cc3)ncc2F)cc1 [R935157, N4-[4-[(1-Ethoxycarbonyl-1-methyl)ethyl]phenyl]-5-fluoro-N2-(4-methoxycarbonylmethyleneoxyphenyl)-2,4-pyrimidinediamine] | 256 | 4.66 |  |  |
| CCOC(=O)COc1ccc(Nc2nc(Cl)c(Cl)c(Nc3ccc(OCC(=O)OCC)cc3)n2)cc1 [R926569, N2,N4-Bis(4-ethoxycarbonylmethyleneoxyphenyl)-5,6-dichloro-2,4-pyrimidinediamine] | 610 | 3.07 |  |  |
| CNC(=O)COc1cccc(Nc2ncc(F)c(Nc3cccc(N)c3)n2)c1 [R950262, N4-(3-Aminophenyl)-5-fluoro-N2-[3-(N-methylamino)carbonylmethyleneoxyphenyl]-2,4-pyrimidinediamine HCl salt] |  |  | 285 | > 10 |
| O=C(CNc1cccc(Nc2ncc(F)c(Nc3cccc(NCCO)c3)n2)c1)NCCNCc1ccccc1 [R950235, N2-[3-[N-(2-N-Benzylamino)ethylamino]carbonylmethyleneaminophenyl]-5-fluoro-N4-[3-(2-hydroxyethylamino)phenyl]-2,4-pyrimidinediamine] | 4090 | > 10 |  |  |
| COC(=O)c1cc(Nc2nc(Cl)ncc2F)cc(C(F)(F)F)c1 [Compound R926861] | > 10000 | > 10 |  |  |
| Cn1nnnc1COc1ccc(Nc2ncc(F)c(Nc3cccc(O)c3)n2)cc1 [R920861, 5-Fluoro-N4-(3-hydroxyphenyl)-N2-[4-(1-methyl-1,2,3,4-tetrazol-5-yl)methyleneoxyphenyl]-2,4-pyrimidineamine] | 598 | > 10 |  |  |
| CC(C)(C)c1cccc(Nc2nc(Nc3cccc(OCC(=O)O)c3)ncc2F)c1 [R940280, N4-(3-tert-Butylphenyl)-N2-[3-carboxymethyleneoxyphenyl]-5-fluoro-2,4-pyrimidinediamine] | 7000 | > 10 |  |  |
| Nc1cccc(Nc2nc(Nc3cccc(Nc4ncc(F)c(Nc5cccc(N)c5)n4)c3)ncc2F)c1 [R950137, N4-(3-Aminophenyl)-N2-[[N3-[N4-(3-aminophenyl)]-5-fluoro-2,4-pyrimidinediamine]aminophenyl]-5-fluoro-2,4-pyrimidinediamine] | 2230 | > 10 |  |  |
| CC(C)Oc1ccc(Nc2nc(Nc3cccc(OCC(=O)O)c3)ncc2F)cc1 [R926731, 5-Fluoro-N2-[3-(carboxymethyleneoxy)phenyl]-N4-[4-(isopropoxy)phenyl]-2,4-pyrimidinediamine] | > 10000 | > 10 |  |  |
| OCCn1ncc2cc(Nc3nc(Nc4ccc5c(c4)OCCO5)ncc3F)ccc21 [R935258, N2-(3,4-Ethylenedioxyphenyl)-5-fluoro-N4-[1-(2-hydroxyethyl)indazoline-5-yl]-2,4-pyrimidinediamine] | 1190 | > 10 |  |  |
| O=C1OCc2ccc(Nc3ncc(F)c(Nc4ccc5c(c4)OCCO5)n3)cc21 [R926786, N2-(1,1-Dihydroisobenzofuran-1-one-6-yl)-N4-(3,4-ethylenedioxyphenyl)-5-fluoro-2,4-pyrimidinediamine] | 504 | > 10 |  |  |
| CNC(=O)COc1cccc(Nc2ncc(F)c(Nc3ccc(OC)c(C(F)(F)F)c3)n2)c1 [R926835, 5-Fluoro-N4-(4-methoxy-3-trifluoromethylphenyl)-N2-[3-(N-methylamino)carbonylmethyleneoxyphenyl]-2,4-pyrimidinediamine] | 296 | > 10 |  |  |
| 5-Cyano-N2-(3,4-ethylenedioxyphenyl)-N4-(methoxycarbonylbenzyl)-2,4-pyrimidinediamine [R925820] | > 10000 | > 10 |  |  |
| O=C(CNc1cccc(Nc2ncc(F)c(Nc3ccc4c(c3)OCCO4)n2)c1)N1CCOCC1 [R950193, N4-(3,4-Ethylenedioxyphenyl)-5-fluoro-N2-[3-(N-morpholino)carbonylmethyleneaminophenyl]-2,4-pyrimidinediamine] | 610 | > 10 |  |  |
| CNC(=O)COc1cccc(Nc2ncc(F)c(Nc3ccc(OC(F)(F)F)cc3)n2)c1 [R926879, 5-Fluoro-N2-[3-(N-methylamino)carbonylmethyleneoxyphenyl]-N4-[4-trifluoromethoxyphenyl]-2,4-pyrimidinediamine] | 397 | > 10 |  |  |
| CC(C)Oc1ccc(Nc2nc(Nc3ccc4[nH]ncc4c3)ncc2F)cc1 [R935197, 5-Fluoro-N2-(indazoline-5-yl)-N4-(4-isopropoxyphenyl)-2,4-pyrimidinediamine] | 174 | > 10 |  |  |
| CCOC(=O)C(C)Oc1ccc(Nc2ncc(C)c(Nc3ccc(OC(C)C(=O)OCC)cc3)n2)cc1 (racemic) [R926259, (±)-N2,N4-Bis[4-ethoxycarbonyl(alpha-methyl)methyleneoxyphenyl]-5-methyl-2,4-pyrimidinediamine] | 2500 | 6.2 |  |  |
| CNC(=O)COc1ccc(Nc2nc(Nc3ccc4c(c3)OCCO4)ncc2F)cc1 [R945173, N2-(3,4-Ethylenedioxyphenyl)-5-fluoro-N4-(4-methylaminocarbonylmethyleneoxyphenyl)-2,4-pyrimidinediamine] | 1420 | > 10 |  |  |

| Compound | IC50 [1] [nM] | IC50 [2] [µM] | IC50 ([1]; HCl salt) [nM] | IC50 ([2]; HCl salt) [µM] |
| --- | --- | --- | --- | --- |
| COc1c(C)cc(Nc2nc(Nc3cccc(OCCN4CCNCC4)c3)ncc2F)cc1C [R945157, N4-(3,5-Dimethyl-4-methoxyphenyl)-5-fluoro-N2-[3-[2-(N-piperazino)ethoxy]phenyl]-2,4-pyrimidinediamine Dihydrochloride Salt] | 1480 | > 10 |  |  |
| O=C(NCCNCc1ccccc1)c1cc2cc(Nc3ncc(F)c(Nc4ccc5oc(C(=O)NCCNCc6ccccc6)cc5c4)n3)ccc2o1 [R950169, N2,N4-Bis[2-(2-(N-benzylamino)ethyleneamoinocarbonyl)-benzofurane-5-yl]-5-fluoro-2,4-pyrimidinediamine] | 1270 | 9.52 |  |  |
| O=C(O)COc1ccc(Nc2ncc(F)c(Nc3ccc(OCC(=O)O)cc3)n2)cc1 [R926560, N2,N4-Bis(4-carboxymethyleneoxy)phenyl-5-fluoro-2,4-pyrimidinediamine] | > 10000 | > 10 |  |  |
| CNC(=O)COc1cccc(Nc2ncc(F)c(Nc3cccc(C(C)C)c3)n2)c1 [R940288, 5-Fluoro-N4-(3-isopropylphenyl)-N2-[3-(N-methylamino)carbonylmethyleneoxyphenyl]-2,4-pyrimidinediamine] | 208 | > 10 |  |  |
| O=C(CNc1cccc(Nc2ncc(F)c(Nc3ccc4c(c3)OCCO4)n2)c1)N(CCO)CCO [R950199, N2-[3-(N,N′-Bis(2-N-hydroxyethyl)amino)carbonylmethyleneaminophenyl]-N4-(3,4-ethylenedioxyphenyl)-5-fluoro-2,4-pyrimidinediamine] | 408 | > 10 |  |  |
| NC(=O)COc1cccc(Nc2ncc(F)c(Nc3ccc4c(c3)OCCO4)n2)c1 [R926747, N2-(3-Aminocarbonylmethyleneoxyphenyl)-N4-(3,4-ethylenedioxyphenyl)-5-fluoro-2,4-pyrimidinediamine] | 213 | > 10 |  |  |
| COc1cc(Nc2ncc(F)c(Nc3ccc4c(cnn4C)c3)n2)cc(OC)c1 [R935214, 5-Fluoro-N2-(3,5-dimethoxyphenyl)-N4-(1-methyl-indazoline-5-yl)-2,4-pyrimidinediamine] | 453 | 5.5 |  |  |
| COc1ccc([C@@H](C)Nc2ncc(Br)c(N[C@H](C)c3ccc(OC)cc3)n2)cc1 [R935016, N2,N4-Bis[1(R)-4-methoxyphenylethyl]-5-bromo-2,4-pyrimidineamine] | > 10000 | > 10 |  |  |
| CCOC(=O)COc1cccc(Nc2ncc(F)c(Nc3ccc4c(c3)C(=O)OC4)n2)c1 [R940285, N2-[3-Ethoxycarbonylmethyleneoxyphenyl]-N4-(3,3-dihydroisobenzofuranyl-1-one-6-yl)-5-fluoro-2,4-pyrimidinediamine] | 3500 | > 10 |  |  |
| CS(=O)(=O)Nc1ccc(Nc2ncc(F)c(Nc3ccc(NS(C)(=O)=O)cc3)n2)cc1 [R950083, N2,N4-Bis[(4-methylsulfonylamino)phenyl]-5-fluoro-2,4-pyrimidinediamine] | > 10000 | > 10 |  |  |
| NC(=O)Cn1c(=O)oc2ccc(Nc3ncc(F)c(Nc4ccc5c(c4)OCCO5)n3)cc21 [R926847, N2-[5-(N-Aminocarbonylmethylene-2-oxo-1,3-oxazol-3(2H)-yl)phenyl]-N4-(3,4-ethylenedioxyphenyl)-5-fluoro-2,4-pyrimidinediamine] | 1480 | 6.26 |  |  |
| Oc1cccc(Nc2ccnc(Nc3ccc(OCc4nn[nH]n4)cc3)n2)c1 [R920819, N4-(3-Hydroxyphenyl)-N2-[4-(1H,1,2,3,4-tetrazol-5-yl)methyleneoxyphenyl]-2,4-pyrimidinediamine] | 10000 | > 10 |  |  |
| CNC(=O)COc1cccc(Nc2ncc(F)c(Nc3cc(C)ccc3Cl)n2)c1 [R926840, N4-(2-Chloro-5-methylphenyl)-5-fluoro-N2-[3-(N-methylamino)carbonylmethyleneoxyphenyl]-2,4-pyrimidinediamine] | 1100 | > 10 |  |  |
| CCOC(=O)CCn1ncc2cc(Nc3ncc(F)c(Nc4cccc(OC(F)(F)F)c4)n3)ccc21 [R935360, N2-[1-(2-Ethoxycarbonylethyl)indazoline-5-yl]-5-fluoro-N4-(3-trifluoromethoxyphenyl)-2,4-pyrimidinediamine] | 903 | > 10 |  |  |
| Fc1cnc(Cl)nc1Nc1cccc(-c2nnn[nH]2)c1 [Compound R926853] | > 10000 | > 10 |  |  |
| CCOC(=O)c1cnc(Nc2ccc(OCC(=O)NCC3CC3)cc2)nc1Nc1cccc(O)c1 [R925838, N2-[4-(N-Cyclopropylmethylamino)carbonylmethyleneoxyphenyl]-5-ethoxycarbonyl-N4-(3-hydroxyphenyl)-2,4-pyrimidinediamine] | > 10000 | > 10 |  |  |
| CSc1nc(Nc2cccc(O)c2)nc(Nc2cccc(O)c2)c1Cl [R926595, N2,N4-Bis(3-hydroxyphenyl)-5-chloro-6-thiomethyl-2,4-pyrimidinediamine] | 4850 | > 10 |  |  |

Source: patent US9499493B2, “2,4-pyrimidinediamine compounds and their uses” (Rigel Pharmaceuticals, Inc., priority 2002, dated 2016)
